assay: in vitro; details: human, hela cells, % viability

Compared with Cc1nc(C)c(C(=O)NC2CCCNC2=O)s1 (stereo not drawn) [CBK281628], Cc1csc(C(C)NC(=O)NC2CCCN(c3ccn(C)n3)C2=O)n1 (stereo not drawn) [CBK304426] is higher in viability at 28.5 h, 10 µM: 86.8% for the first, 107% for the second.

Going from Cc1cc(C)n(C(C)CC(=O)N2CCN(C)CC2c2ccccc2)n1 (stereo not drawn) [CBK282014] to Cc1cc(C)n(C(C(=O)NCC2(C)COC2)C(C)C)n1 (stereo not drawn) [CBK281758], the viability at 28.5 h, 10 µM falls from 92.2% to 85.9%.

First: COc1ccc(Sc2cccc(C(F)(F)F)n2)cc1OC [CBK093769]
Second: COC(=O)C1=C(Cn2ccc(C(F)(F)F)n2)NC(=O)NC1c1cc(C)ccc1C (stereo not drawn) [CBK268792]
The viability at 28.5 h, 10 µM of the first is lower: 94% for the first, 105% for the second.

Compared with O=C(Cn1ccnc1)NC(c1ccc(Cl)cc1)c1cccnc1 (stereo not drawn) [CBK281481], Cc1ccc(NC(=O)CSc2nc3ccccc3c(=O)n2Cc2ccco2)cc1Cl [CBK265606] is higher in viability at 28.5 h, 10 µM: 99.2% for the first, 102% for the second.

Compared with Cc1ccc(C2=CCN(CC(=O)NCc3ccco3)CC2)o1 [CBK283632], O=C(NC[C@H]1CCCN(C(=O)c2cccs2)C1)c1ccco1 [CBK284261] is lower in viability at 28.5 h, 10 µM: 107% for the first, 94.6% for the second.

Going from CN(C(=O)c1c[nH]nc1-c1ccc(CNC(=O)Cc2ccc(F)cc2)cc1)c1ccccc1 [CBK285599] to Cc1ccccc1C(=O)NCC(=O)Nc1ccc(Br)c2ccccc12 [CBK091343], the viability at 28.5 h, 10 µM rises from 95.9% to 98%.

First: O=S(=O)(c1cc(Cl)sc1Cl)N1CCN(Cc2ccc3c(c2)OCO3)CC1 [CBK074743]
Second: Cc1ccc(S(=O)(=O)N2CCN(CCC(=O)O)CC2)cc1 [CBK269443]
The viability at 28.5 h, 10 µM of the first is lower: 92.6% for the first, 97.1% for the second.

Going from O=C(c1ccc(N2CCSCC2)nc1)N1CCC(N2CCOCC2)CC1 [CBK306582] to C(=C\c1ccccc1)/CN1CCN(C2CCN(CCc3ccccc3)CC2)CC1 [CBK261923], the viability at 28.5 h, 10 µM rises from 78.6% to 108%.

Going from Cc1ccc(Oc2ccc([N+](=O)[O-])cc2)c(Br)c1 [CBK002832] to O=c1c(N2CCC(Sc3ccccc3)CC2)nccn1Cc1ccc([N+](=O)[O-])cc1 [CBK153654], the viability at 28.5 h, 10 µM rises from 90.6% to 108%.

Compared with CS(=O)(=O)c1cccc(-c2cnc(NCC3CC3)c(C(=O)Nc3ccc4c(c3)OCO4)c2)c1 [CBK076362], c1ccc(-c2ccc(Nc3ccc4c(c3)OCCO4)nc2)cc1 [CBK037802] is higher in viability at 28.5 h, 10 µM: 95.2% for the first, 98.3% for the second.

First: CC(C)NC(=O)N[C@H]1CCN2C(=O)c3ccc(Cl)cc3NC(=O)[C@H]12 [CBK289343]
Second: Cc1nn(C)c(C)c1NC(=O)CN1CCN(c2cccc(Cl)c2)CC1 [CBK306052]
The viability at 28.5 h, 10 µM of the first is higher: 99.5% for the first, 81.1% for the second.

First: O=C(Nc1cc(N2CCCS2(=O)=O)ccc1Cl)c1cc[nH]n1 [CBK306249]
Second: O=C(CN1CCCN(c2nccs2)CC1)Nc1cc(Cl)ccc1Cl [CBK305921]
The viability at 28.5 h, 10 µM of the first is lower: 83.1% for the first, 99.7% for the second.

First: CCCC(=O)Nc1ccc(-c2csc(N3CCN(C)CC3)n2)cc1 [CBK305025]
Second: CC(C)Oc1cccc(C(=O)Nc2ccc(N3CCN(C)CC3)cc2)c1 [CBK266090]
The viability at 28.5 h, 10 µM of the first is higher: 103% for the first, 90.5% for the second.

Going from C=CCn1c2ccccc2c2nnc(SCC(=O)Nc3c(C)n(C)n(-c4ccccc4)c3=O)nc21 [CBK263892] to Cc1ccc(C)c(-c2nn(-c3ccccc3)cc2/C=C2\SC(=S)N(CC(=O)O)C2=O)c1 [CBK264541], the viability at 28.5 h, 10 µM rises from 87.6% to 98.4%.

First: COc1cc2cc3c(N)c(C(=O)N4CCCc5ccccc54)sc3nc2cc1OC [CBK117298]
Second: CCn1c2ccccc2c2cc(CN3CCN(c4ccccc4OC)CC3)ccc21 [CBK261579]
The viability at 28.5 h, 10 µM of the first is higher: 102% for the first, 85.4% for the second.

First: Cn1cc(CNCC2CCN(c3ccccc3)C2)c(-c2ccncc2)n1 (stereo not drawn) [CBK306317]
Second: COCCNC(=O)N1CCN(c2ccccc2)CC1 [CBK155181]
The viability at 28.5 h, 10 µM of the first is lower: 94.3% for the first, 96.1% for the second.

Compared with O=C1N=C(NCC2CCCCC2)SC1CC(=O)N1CCCC(O)C1 (stereo not drawn) [CBK067919], O=C(O)C1CCCCC1C(=O)N1CCN(Cc2cccc3ccccc23)CC1 (stereo not drawn) [CBK270293] is lower in viability at 28.5 h, 10 µM: 109% for the first, 91.2% for the second.

First: CCc1noc(CN2CCN(c3ccc(C(=O)OC)cc3)CC2C)n1 (stereo not drawn) [CBK306154]
Second: CCCNC(=O)NC1CC(C)(C)Cc2nc(N3CCOCC3)ncc21 (stereo not drawn) [CBK307232]
The viability at 28.5 h, 10 µM of the first is higher: 86.4% for the first, 85.7% for the second.

Compared with CCC(CC)C(=O)N1CCC2(CC1)Nc1cccnc1-n1cccc12 [CBK284508], Oc1cccc(OCCOc2nccnc2N2CCCC2)c1 [CBK115756] is higher in viability at 28.5 h, 10 µM: 80.7% for the first, 85.5% for the second.

First: Nc1ncnc2sc3c(c12)CCC3 [CBK097952]
Second: Cc1nn(C)c(C)c1OCC(=O)Nc1nc2c(cc1C#N)CCC2 [CBK306371]
The viability at 28.5 h, 10 µM of the first is higher: 89.7% for the first, 81% for the second.

Going from CC(C)CCN1CCC2CN(CCCC(c3ccc(F)cc3)c3ccc(F)cc3)CCN2C1=O (stereo not drawn) [CBK024898C] to O=C(NCC(c1ccccc1)c1ccccc1)N1CCN(c2ccc(F)cc2)CC1 [CBK156415], the viability at 28.5 h, 10 µM falls from 102% to 97%.

Going from CC1CCN(c2nc3nonc3nc2Nc2ccc3c(c2)OCO3)CC1 [CBK077551] to COc1ccc(C(C)C)cc1-c1cn2ccnc2c(NC2CCOCC2)n1 [CBK066320], the viability at 28.5 h, 10 µM falls from 98.8% to 94%.

Compared with Cc1ccc2nc(-c3ccc4c(c3)CC(C)N4S(C)(=O)=O)cn2c1 (stereo not drawn) [CBK285184], CC(=O)C1=C(C)NC(SCC(=O)c2ccc(C)cc2)=C(C#N)C1c1ccco1 (stereo not drawn) [CBK262623] is higher in viability at 28.5 h, 10 µM: 79.4% for the first, 109% for the second.

First: CN(C)c1cccc(-c2nc(-c3occc3C=O)cnc2N)c1 [CBK064001]
Second: CN(C)CCN(C)C(=O)c1ccc(-c2cccc(N(C)C)c2)nc1N(C)C [CBK106077]
The viability at 28.5 h, 10 µM of the first is higher: 92.1% for the first, 89.6% for the second.

Going from CCCn1c(=O)c(C(=O)NCCN(CC)CC)c(O)c2cc(Br)ccc21 [CBK291118] to Cc1n[nH]c(C)c1CNC(=O)c1cc2ccc(F)cc2[nH]1 [CBK283147], the viability at 28.5 h, 10 µM rises from 85.7% to 89.4%.

Compared with CC(C)C[C@@H]1N[C@H](C(=O)NCc2cccnc2)Cc2c[nH]c3cccc1c23 [CBK289418], O=C(NCCc1cc2ccccc2[nH]1)Nc1cccc2ccccc12 [CBK269246] is higher in viability at 28.5 h, 10 µM: 90% for the first, 106% for the second.

Compared with Cc1ncc([N+](=O)[O-])n1Cc1nnc(S)n1C [CBK267873], Cc1ccc(CCn2cc(C)nc2C)cn1 [CBK021231] is higher in viability at 28.5 h, 10 µM: 95.4% for the first, 106% for the second.

Going from COc1ccc(Nc2cc(-n3nc(C)cc3-c3ccccc3)ncn2)cc1 [CBK293925] to COc1ccc(OCc2nc3ccccc3n2C(C)c2ccccc2)cc1 (stereo not drawn) [CBK293941], the viability at 28.5 h, 10 µM rises from 104% to 116%.

Compared with Cn1cc(C(NC(=O)c2cn3ccsc3n2)C2CC(O)C2)cn1 (stereo not drawn) [CBK307428], Cn1ncc2c1CCCN(C(=O)Cc1ccc(Cl)cc1)C2 [CBK285231] is lower in viability at 28.5 h, 10 µM: 110% for the first, 106% for the second.

Compared with CC(Cc1nc(-c2cnnn2C)cs1)n1cc(Cl)cn1 (stereo not drawn) [CBK304245], CC(C)C(CNCc1cncnc1)c1ccnn1C (stereo not drawn) [CBK304190] is lower in viability at 28.5 h, 10 µM: 99.6% for the first, 79.9% for the second.

Compared with COc1cc(C2N(Cc3ccccc3)CCN2Cc2ccccc2)ccc1OC(C)=O [CBK261349], COc1ccc(Cl)cc1CN(C)C(=O)c1ccc[nH]c1=O [CBK305933] is higher in viability at 28.5 h, 10 µM: 89.2% for the first, 90.6% for the second.

Compared with CS(=O)(=O)Nc1ccc(C(=O)Nc2ccc(S(=O)(=O)N3CCOCC3)cc2)cc1 [CBK268379], CC1=C[C@@H](CNS(=O)(=O)c2ccccc2)[C@H](C(C)C)C[C@H]1CC(=O)N1CCOCC1 [CBK289049] is lower in viability at 28.5 h, 10 µM: 117% for the first, 79.7% for the second.

Going from O=C(Cn1ncn2c(cc3ccsc32)c1=O)N1CCCCCC1 [CBK284202] to CCc1nn(CC(=O)N2CCCCC2)c(=O)c2cc3occc3n12 [CBK283674], the viability at 28.5 h, 10 µM falls from 81.7% to 77%.

O=C(CC1CCN(Cc2cccc(C(F)(F)F)c2)CC1)N(Cc1ccccn1)C1CC1 [CBK286494] and OC1(c2cccnc2)CCCC2CN(Cc3ccc(F)c(F)c3)CC21 (stereo not drawn) [CBK284511] are the same in viability at 28.5 h, 10 µM: 101% for the first, 101% for the second.

Compared with CN(Cc1ccsc1)C(=O)c1cccc(S(=O)(=O)NCC2CCCO2)c1 (stereo not drawn) [CBK304232], COc1cccn(CC(=O)N2CCc3sc(C(=O)N(C)C)cc3C2)c1=O [CBK307665] is higher in viability at 28.5 h, 10 µM: 83.7% for the first, 90.5% for the second.

First: Cc1cc(CC(=O)N/N=C/c2ccccc2)[nH]n1 [CBK007500]
Second: CC(C)(CO)CNc1cncc(-c2cccnc2)n1 [CBK037881]
The viability at 28.5 h, 10 µM of the first is higher: 99.8% for the first, 89.8% for the second.

Compared with COCc1cc(C)nc2sc(C(N)=O)c(N)c12 [CBK018149], COc1cccc2ncn(C(C)c3nc(C)sc3C)c(=O)c12 (stereo not drawn) [CBK306570] is higher in viability at 28.5 h, 10 µM: 93% for the first, 109% for the second.

First: Cc1ccc(C(=O)Nc2ccc(C)nc2C)cn1 [CBK200289]
Second: CC(C)Nc1cc(Sc2ccc(Br)cc2)ncn1 [CBK089502]
The viability at 28.5 h, 10 µM of the first is lower: 89.6% for the first, 103% for the second.

First: COc1cccc(NC(=O)C(=O)NCCCO)c1 [CBK262095]
Second: O=C(NCCCNc1c(Cl)cccc1[N+](=O)[O-])c1ccc(F)cc1 [CBK264943]
The viability at 28.5 h, 10 µM of the first is lower: 89.6% for the first, 99.4% for the second.

Going from O=c1[nH]c2ncc(-c3ccoc3)nc2n1Cc1cccs1 [CBK064647] to C[C@H](Nc1nc(-c2cc(C(F)(F)F)cc(C(F)(F)F)c2)cnc1N)c1ccccc1 [CBK063768], the viability at 28.5 h, 10 µM rises from 90.3% to 106%.

Compared with O=C(Nc1ccccc1N1CCNCC1)C1CCC1 [CBK004755T], CC(C)(C)OC(=O)N1CCCC(C(=O)NC(CO)Cc2ccccn2)C1 (stereo not drawn) [CBK305458] is lower in viability at 28.5 h, 10 µM: 90.9% for the first, 88.4% for the second.

Compared with Cc1c(C(=O)N2CCCC2C(N)=O)nnn1Cc1ccc(F)cc1F (stereo not drawn) [CBK305925], O=C(CN1CCC2(CC1)CN(C(=O)CO)c1ccccc12)Nc1ccc(F)c(Cl)c1 [CBK131509] is lower in viability at 28.5 h, 10 µM: 94.5% for the first, 92.3% for the second.

Compared with CC(N)(Cc1ccc(Oc2ncc(C(F)(F)F)cc2Cl)cc1)C(=O)O (stereo not drawn) [CBK161647], CCCCSc1sc(C(=O)O)c(-c2ccc(Cl)cc2)c1C#N [CBK122551] is higher in viability at 28.5 h, 10 µM: 91.9% for the first, 94.1% for the second.

Compared with CN1CCN(c2cccc(-c3cc4ccccc4s3)n2)CC1 [CBK037019], CN1CCN(c2ccc3ccn(S(=O)(=O)c4ccccc4Br)c3n2)CC1 [CBK200019C] is lower in viability at 28.5 h, 10 µM: 102% for the first, 92.5% for the second.

First: CN1CCN(Cc2ccccc2[N+](=O)[O-])CC1 [CBK261524]
Second: Cc1ccc(C)c(OCCNCCN(C)C)c1Cl [CBK267816C]
The viability at 28.5 h, 10 µM of the first is lower: 85.5% for the first, 88.5% for the second.
